Measurements taken from paper PMC9023544, “Ketone-selenoesters as potential anticancer and multidrug resistance modulation agents in 2D and 3D ovarian and breast cancer in vitro models” (Scientific Reports, 2022).

Legend:
HOC = test: Oxidation stress (ROS), Muse Oxidative Stress Kit; format: cell-based, human; conditions: 1 µM (DMSO 5% V/V), 24 h
Description: Selenoesters (K3, K4, K7) were tested for their ability to generate reactive oxygen species (ROS). HOC was exposed to selenoesters in concentration of 1 µM for 24 h. DMSO (5% V/V) was used as a positive control. The required volume of DMSO (1% V/V) was added to untreated cells. ROS are essential biomolecules in cellular regulation as a part of the defence mechanisms. On the other hand, their participation in cell signalling may affect apoptosis and other death pathways. In the assay, dihydroethidium (DHE) reacts with superoxide anions by forming DNA-binding fluorophore ethidium bromide. Based on fluorescence, the cell population can be distinguished into ROS negative and ROS positive cells containing oxygen radicals.
To determine the oxidation stress potential of selected selenoesters, HOC were seeded into 24-well plates at a density 2 × 10^5 cells/mL for 24 h according to the above mentioned procedure. Afterwards, the plates were washed 1 ×with PBS and fresh DMEM medium containing compounds K3, K4, K7 (final concentration—1 µM) was added for 24 h, except for the positive and negative control. […] as the oxidation stress inductor. After incubation, the cells were washed 1× with PBS and released from the surface by using a trypsin–EDTA solution. After trypsin inhibition by medium addition, the cell suspensions were centrifuged (100×g, 5 min, 25 °C), supernatants were removed, and cell pellets resuspended in 1× assay buffer. All reagents were prepared immediately before use. Afterwards, 10 µL of the cell suspension were mixed with 190 µL of working solution (Muse Oxidative stress reagent) and stained for 30 min at 37 °C. Subsequently, the […] were analysed by Guava Muse Cell Analyzer. Oxidation stress detection was performed following the instructions provided by the manufacturer.

HOC/ADR spheroids = test: Sensitization of resistant 3D spheroids to Adriamycin; format: cell-based, human; conditions: Adriamycin IC50 / Adriamycin + selenoester IC50; K3 3 µM, K4 5 µM, K7 5 µM; 72 h
Description: In the previous section, the cytotoxic activity of selenoesters was determined against several 3D models of sensitive and resistant cell lines. Subsequently, the selenoesters were tested for their potential to sensitize the drug-resistant HOC/ADR and MCF-7/PAX spheroids. Mature 72 h old spheroids were incubated with the non-toxic concentration of selenoesters with Adriamycin or paclitaxel (concentration range 0.6–80 µM) for HOC/ADR or MCF-7/PAX, respectively (Table 8). After another 72 h incubation, the sensitization rate (fold change) was evaluated. […] The highest sensitization rate of ovarian spheroids (HOC/ADR) was induced by 5 µM K4, followed by 5 µM K7, and 3 µM K3.
To determine the sensitization potential of compounds, HOC/ADR and MCF-7/PAX were seeded into the ultra-low attachment 96-well plates (Sigma-Aldrich) at a cell density 0.5 × 10^5 cells/mL. After 3 days of spheroid formation, spheroids were carefully washed once with PBS and fresh DMEM medium (99 µL) containing the appropriate concentration of compounds K3, K4, K7 was added. Using a binary serial compound dilution, the concentration range of both cytostatics was prepared in the new 96-well plates (0.06–8 mM). After 1 µL transfer of cytostatics into the corresponding cell line, the final concentration range were 0.6–80 µM. The required volume of DMSO (1% V/V) was added to the positive control. After an incubation of 72 h, 100 µL of CellTiter-Glo 3D Reagent (Promega) was added to each well. Plates with spheroids were incubated for 25 min at room temperature. Afterwards, the luminescent signal was recorded.

SMILES: CC(=O)C[Se]C(=O)c1ccccc1C(F)(F)F [K4]
- ROS(+) cells (HOC): 14.5 ± 1.5 %
- ROS(−) cells (HOC): 85.5 ± 1.6 %
- HOC/ADR Fold change (3D) (HOC/ADR spheroids): (2.3 ± 0.1)×

SMILES: CC(=O)C[Se]C(=O)c1ccc(Br)cc1 [K3]
- ROS(+) cells (HOC): 29.1 ± 4.2 %
- ROS(−) cells (HOC): 70.8 ± 4.2 %
- HOC/ADR Fold change (3D) (HOC/ADR spheroids): (1.2 ± 0.2)×

SMILES: CC(=O)C[Se]C(=O)c1ccc(C(C)(C)C)cc1 [K7]
- ROS(+) cells (HOC): 22.3 ± 0.4 %
- ROS(−) cells (HOC): 77.7 ± 0.4 %
- HOC/ADR Fold change (3D) (HOC/ADR spheroids): (1.6 ± 0.1)×
